The results in this text go back to patent publication US7179825B2, “Retinoic acid mimetic anilides” (Janssen Pharmaceutica N.V., priority 1997, dated 2007).

For orientation: IC50 means the concentration that inhibits the measured activity by half.

Assay [1] concerns metabolism of retinoic acid in human breast cancer cells. Kind of assay: Inhibition of retinoic acid (RA) metabolism (Example C.1). Format: cell-based. To be noted: MCF-7 human breast cancer cells, 3H-RA as substrate; concentration needed to reduce the amount of metabolites to 50% of the control. The procedure, abridged:
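MCF-7 cells, pre-stimulated with RA the day before, incubated with ³H-RA substrate and test compound in 1% DMSO. Polar ³H-metabolites separated from unmetabolized RA and counted by scintillation. IC50 is the concentration cutting metabolite formation to 50% of control, with blank run alongside.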

Another assay has as its system Ovariectomized rats. Kind of assay: Vaginal keratinization test on ovariectomized rats (Example C.2). The following applies: estradiol undecylate induced keratinization, per os once daily on days 1-3, active dose = 50% of rats show complete suppression. It is filed as in vivo. The procedure, abridged: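 Ovariectomized rats given s.c. estradiol undecylate (100 μg per 100 g body weight in sesame oil), then oral compound once daily on days 1-3 (vehicle PEG 200). Vaginas assessed histologically one day after last dose; lowest active dose (mg/kg) is the dose giving complete keratinization suppression in 50% of rats.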

SMILES strings stand for the structures.

As to `C/C(=C\c1ccccc1)C(=O)Nc1ccc(C(C2CCCC2)n2ccnc2)cc1` (racemic) [Compound 470], in assay [1], the IC50 is 18.7 nM. The “LAD (lowest active dose)” value with Ovariectomized rats is over 20.00 mg/kg.
On the same counts, the results for `CC(C)C(c1ccc(NC(=O)C(=Cc2ccccc2)C2CCCC2)cc1)n1ccnc1` (racemic) [Compound 472] are 95.1 nM and over 20.00 mg/kg.
On the same counts, the results for `CC(C)C(c1ccc(NC(=O)/C(=C/c2ccccc2)C2CCCCC2)cc1)n1ccnc1` (racemic) [Compound 473] are over 100 nM and over 10.00 mg/kg.
On the same counts, the results for `C/C(=C\c1ccccc1)C(=O)Nc1ccc(C(CC(C)C)n2ccnc2)cc1` (racemic) [Compound 474] are 15.9 nM and over 10.00 mg/kg.
`C/C(=C\c1ccccc1)C(=O)Nc1ccc(C(C2COCOC2)n2ccnc2)cc1` (racemic) [Compound 477]: in assay [1], the IC50 is over 1000 nM. Further, the “LAD (lowest active dose)” value with Ovariectomized rats was over 10.00 mg/kg.
On the same counts, the results for `CCC(CC)C(c1ccc(NC(=O)/C(C)=C/c2ccccc2)cc1)n1ccnc1` (racemic) [Compound 478] are 1.63 nM and 2.50 mg/kg.
As to `C/C(=C\c1ccccc1)C(=O)Nc1ccc(C(n2ccnc2)C(C)(C)C)cc1` (racemic) [Compound 481], the IC50 in assay [1] is 2.83 nM. The “LAD (lowest active dose)” value in the assay on Ovariectomized rats was 10.00 mg/kg.
On to `C/C(=C\c1ccccc1)C(=O)Nc1ccc(C(C(c2ccccc2)c2ccccc2)n2ccnc2)cc1` (racemic) [Compound 485], for which, in assay [1], the IC50 is over 100 nM. The “LAD (lowest active dose)” value in the assay on Ovariectomized rats was 5.00 mg/kg.
On the same counts, the results for `O=C(/C=C/c1ccccc1)Nc1ccc(C(c2ccccc2)n2ccnc2)cc1` (racemic) [Compound 497] are 37.6 nM and over 20.00 mg/kg.
On the same counts, the results for `CC(C)C(c1ccc(NC(=O)/C=C/c2ccccc2)cc1)n1ccnc1` (racemic) [Compound 502] are 32.9 nM and 5.00 mg/kg.
As to `CC(C)C(c1ccc(NC(=O)C=C(c2ccccc2)c2ccccc2)cc1)n1ccnc1` (racemic) [Compound 511], the IC50 in assay [1] came to 10.5 nM. The “LAD (lowest active dose)” value with Ovariectomized rats is over 20.00 mg/kg.
For `CC(=CC(=O)Nc1ccc(C(c2ccc(Cl)cc2)n2ccnc2)cc1)c1ccccc1` (racemic) [Compound 512], in that order: 616 nM and over 20.00 mg/kg.
On the same counts, the results for `CCCCC(=CC(=O)Nc1ccc(C(c2ccc(Cl)cc2)n2ccnc2)cc1)c1ccccc1` (racemic) [Compound 513] are 860 nM and over 20.00 mg/kg.
For `C/C=C(\C)C(=O)Nc1ccc(C(C(C)C)n2ccnc2)cc1` (racemic) [Compound 574], in that order: 1.78 nM and 20.00 mg/kg.
With `C/C(=C\c1cccnc1)C(=O)Nc1ccc(C(C(C)C)n2ccnc2)cc1` (racemic) [Compound 575], in assay [1], the IC50 was determined as 25.7 nM. Also, the “LAD (lowest active dose)” value with Ovariectomized rats was 20.00 mg/kg.
On to `C/C(=C\c1cccc(Cl)c1)C(=O)Nc1ccc(C(C(C)C)n2ccnc2)cc1` (racemic) [Compound 577], for which, in assay [1], the IC50 came out at 42.3 nM. The “LAD (lowest active dose)” value in the assay with Ovariectomized rats turned out to be 10.00 mg/kg.
In the case of `CC(=Cc1cccc(C(F)(F)F)c1)C(=O)Nc1ccc(C(C(C)C)n2ccnc2)cc1` (racemic) [Compound 578], the IC50 in assay [1] was 7.67 nM. The “LAD (lowest active dose)” value with Ovariectomized rats was over 10.00 mg/kg.
On the same counts, the results for `CC(=Cc1ccc(Cl)cc1)C(=O)Nc1ccc(C(C(C)C)n2ccnc2)cc1` (racemic) [Compound 579] are 12.4 nM and 10.00 mg/kg.
On the same counts, the results for `COc1ccc(/C=C(\C)C(=O)Nc2ccc(C(C(C)C)n3ccnc3)cc2)cc1` (racemic) [Compound 582] are 1.58 nM and over 10.00 mg/kg.
For `C/C(=C\c1ccc(F)cc1)C(=O)Nc1ccc(C(C(C)C)n2ccnc2)cc1` (racemic) [Compound 583], in that order: 2.78 nM and 10.00 mg/kg.
As to `C/C(=C\c1ccccc1F)C(=O)Nc1ccc(C(C(C)C)n2ccnc2)cc1` (racemic) [Compound 585], in assay [1], the IC50 is 7.21 nM. In the assay with Ovariectomized rats, the “LAD (lowest active dose)” value stood at 10.00 mg/kg.
Turning to `CC(=Cc1cccc(F)c1)C(=O)Nc1ccc(C(C(C)C)n2ccnc2)cc1` (racemic) [Compound 586], the IC50 in assay [1] worked out at 3.74 nM. Also, the “LAD (lowest active dose)” value with Ovariectomized rats was over 10.00 mg/kg.
For `CC(=CCCc1ccccc1)C(=O)Nc1ccc(C(C(C)C)n2ccnc2)cc1` (racemic) [Compound 587], in that order: 31.6 nM and over 10.00 mg/kg.
For `C/C(=C\Cc1ccccc1)C(=O)Nc1ccc(C(C(C)C)n2ccnc2)cc1` (racemic) [Compound 589], in that order: 2.75 nM and 10.00 mg/kg.
In the case of `C/C(=C\c1ccc2ncccc2c1)C(=O)Nc1ccc(C(C(C)C)n2ccnc2)cc1` (racemic) [Compound 590], the IC50 in assay [1] is 2.78 nM. The “LAD (lowest active dose)” value with Ovariectomized rats was over 10.00 mg/kg.
Regarding `C/C(=C\c1ccc2ccccc2c1)C(=O)Nc1ccc(C(C(C)C)n2ccnc2)cc1` (racemic) [Compound 591], the IC50 in assay [1] turned out to be 40.1 nM. For the same compound, in the assay with Ovariectomized rats, the “LAD (lowest active dose)” value was over 10.00 mg/kg.
On to `C/C(=C\c1ccnc2ccccc12)C(=O)Nc1ccc(C(C(C)C)n2ccnc2)cc1` (racemic) [Compound 592], for which the IC50 in assay [1] amounted to 4.15 nM. For the same compound, the “LAD (lowest active dose)” value in the assay with Ovariectomized rats was over 10.00 mg/kg.
On the same counts, the results for `C/C(=C\c1cccc2ccccc12)C(=O)Nc1ccc(C(C(C)C)n2ccnc2)cc1` (racemic) [Compound 593] are 2.7 nM and over 10.00 mg/kg.
For the compound `C/C(=C\c1ccco1)C(=O)Nc1ccc(C(C(C)C)n2ccnc2)cc1` (racemic) [Compound 594], in assay [1], the IC50 is 4.81 nM. Moreover, in the assay on Ovariectomized rats, the “LAD (lowest active dose)” value is on record as over 10.00 mg/kg.
For `C/C(=C\c1cccs1)C(=O)Nc1ccc(C(C(C)C)n2ccnc2)cc1` (racemic) [Compound 595], in that order: 3.83 nM and 10.00 mg/kg.
For `C/C(=C\c1ccsc1)C(=O)Nc1ccc(C(C(C)C)n2ccnc2)cc1` (racemic) [Compound 596], in assay [1], the IC50 stood at 7.92 nM. For the same compound, in the assay on Ovariectomized rats, the “LAD (lowest active dose)” value was determined as 10.00 mg/kg.
On the same counts, the results for `C=C(C)C(=O)Nc1ccc(C(C(C)C)n2ccnc2)cc1` (racemic) [Compound 597] are 5 nM and over 10.00 mg/kg.
On the same counts, the results for `C/C(=C\c1ccc2[nH]c(=O)ccc2c1)C(=O)Nc1ccc(C(C(C)C)n2ccnc2)cc1` (racemic) [Compound 598] are 23.9 nM and over 10.00 mg/kg.
For `C/C(=C\c1ccc2nn(C)nc2c1)C(=O)Nc1ccc(C(C(C)C)n2ccnc2)cc1` (racemic) [Compound 599], in that order: 6.36 nM and over 20.00 mg/kg.
`C/C(=C\c1ccc(C)o1)C(=O)Nc1ccc(C(C(C)C)n2ccnc2)cc1` (racemic) [Compound 601]: in assay [1], the half-inhibitory concentration (IC50) came to 20 nM. Further, in the assay with Ovariectomized rats, the “LAD (lowest active dose)” value turned out to be 10.00 mg/kg.
For `C/C(=C\c1ccc2nnn(C)c2c1)C(=O)Nc1ccc(C(C(C)C)n2ccnc2)cc1` (racemic) [Compound 602], in that order: 25.7 nM and over 10.00 mg/kg.
